Measured values taken from patent publication US20250049827A1, “A PHARMACEUTICAL COMPOSITION FOR THE TREATMENT OF OTIC INFECTIONS” (Intervet Inc., priority 2021, published 2025).
Read-outs that look alike come from different tables or passages of the source.

Assays:
[1] = cited from earlier work
[2] = tested on: gentamicin resistant Pseudomonas aeruginosa; conditions: MIC studies performed in the US; cited from earlier work
[3] = Pilot ear depletion study: gentamicin concentration in ear wax; assay type: in vivo
Method: An ear depletion study was performed to assess gentamicin concentration in ear wax. It was determined that the gentamicin concentrations detected in the ear wax were high enough to be effective against gentamicin resistant Pseudomonas aeruginosa.

Row | Molecule | solubility ([1]; in acetone and chloroform) | solubility ([1]; in methanol, ethanol, and isopropanol) | solubility ([1]; in tetrahydro furan) | solubility ([1]; in water) | highest MIC [2] [µg/mL] | Total Gentamicin Concentration (mg/g) [Mean ± STD] ([3]; 24 hours post dose, Left ear) [mg/g] | Total Gentamicin Concentration (mg/g) [Mean ± STD] ([3]; 24 hours post dose, Right ear) [mg/g] | Total Gentamicin Concentration (mg/g) [Mean ± STD] ([3]; 72 hours post dose, Left ear) [mg/g] | Total Gentamicin Concentration (mg/g) [Mean ± STD] ([3]; 72 hours post dose, Right ear) [mg/g] | Total Gentamicin Concentration (mg/g) [Mean ± STD] ([3]; 168 hours post dose, Left ear) [mg/g] | Total Gentamicin Concentration (mg/g) [Mean ± STD] ([3]; 168 hours post dose, Right ear) [mg/g] | Total Gentamicin Concentration (mg/g) [Mean ± STD] ([3]; 240 hours post dose, Left ear) [mg/g] | Total Gentamicin Concentration (mg/g) [Mean ± STD] ([3]; 240 hours post dose, Right ear) [mg/g] | Total Gentamicin Concentration (mg/g) [Mean ± STD] ([3]; 336 hours post dose, Left ear) [mg/g] | Total Gentamicin Concentration (mg/g) [Mean ± STD] ([3]; 336 hours post dose, Right ear) [mg/g]
1 | C[C@@H]1C[C@H]2[C@@H]3CCC4=CC(=O)C=C[C@]4(C)[C@@]3(Cl)[C@@H](O)C[C@]2(C)[C@@]1(OC(=O)c1ccco1)C(=O)CCl [Mometasone Furoate, 9,21-Dichloro-1 1 (beta), 17-dihydroxy-16 (alpha)-methylpregna-1,4-diene-3,20-dione 17-(2 Furoate)] | soluble | slightly soluble | freely soluble | practically insoluble |  |  |  |  |  |  |  |  |  |  | 
2 | Gentamicin |  |  |  |  | 64 | 11.51 ± 8.68 | 11.96 ± 10.11 | 8.15 ± 2.94 | 8.66 ± 5.00 | 3.78 ± 1.55 | 3.97 ± 3.38 | 1.87 ± 1.49 | 2.29 ± 1.36 | 1.46 ± 2.08 | 2.25 ± 2.44
